# From patent publication US4650760A, “Modified alkaline phosphatase” (Research Corporation, priority 1985, dated 1987)
# Columns and labels:
# [1] = target: native bacterial alkaline phosphatase (BAP) (Escherichia coli, UniProt P00634); settings: 2.6×10^-6 M enzyme, 0.5 M NaCl, 0.025 M Tris, pH 7.5
# Procedure: (§1) Enzyme was incubated with EDTA; conditions- 2.6×10^-6 M enzyme, -0.015 M EDTA, 0.5 M NaCl, 5×10^-4 M Mg(II), 5×10^-5 M Zn(II), 5×10^-4 M spermidine, 0.025 M Tris, pH 7.5. Aliquots were withdrawn at the indicated time points and enzymatic activity in the standard phosphohydrolase assay (Appleburg, M. L. and J. E. Coleman J. Biol. Chem. 244: 308 (1969)) was determined. Data are shown as the per cent of the initial activity remaining at the times indicated. […] Enzyme was harvested and activity determined.
# (§2) Following inactivation, samples of th enzymes were dialyzed against buffer solutions containing Zn(II) and Mg(II) ions (arrow in FIG. 14).
# [2] = target: E. coli alkaline phosphatase, trypsin-modified (tm-AP) (Escherichia coli, UniProt P00634); settings: 2.6×10^-6 M enzyme, 0.5 M NaCl, 0.025 M Tris, pH 7.5
# Sequence of E. coli alkaline phosphatase, trypsin-modified (tm-AP) (P00634 33-471): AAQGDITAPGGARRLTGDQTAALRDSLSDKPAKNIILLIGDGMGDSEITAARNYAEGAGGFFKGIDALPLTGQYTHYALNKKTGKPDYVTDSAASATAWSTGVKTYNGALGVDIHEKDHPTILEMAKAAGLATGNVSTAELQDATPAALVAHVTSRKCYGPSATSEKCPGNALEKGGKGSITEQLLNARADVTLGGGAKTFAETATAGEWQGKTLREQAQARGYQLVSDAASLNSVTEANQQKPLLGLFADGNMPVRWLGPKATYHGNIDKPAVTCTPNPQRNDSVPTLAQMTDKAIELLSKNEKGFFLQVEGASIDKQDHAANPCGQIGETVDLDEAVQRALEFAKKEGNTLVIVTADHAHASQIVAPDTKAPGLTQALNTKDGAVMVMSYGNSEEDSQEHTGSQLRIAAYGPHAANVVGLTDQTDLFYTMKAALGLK
# Procedure: as §1, §2
# [3] = target: alkaline phosphatase isolated from leukocytes (Homo sapiens, UniProt P05186); settings: 0.02M EDTA; cited from earlier work
# Sequence of alkaline phosphatase isolated from leukocytes (P05186 18-502 limits assumed): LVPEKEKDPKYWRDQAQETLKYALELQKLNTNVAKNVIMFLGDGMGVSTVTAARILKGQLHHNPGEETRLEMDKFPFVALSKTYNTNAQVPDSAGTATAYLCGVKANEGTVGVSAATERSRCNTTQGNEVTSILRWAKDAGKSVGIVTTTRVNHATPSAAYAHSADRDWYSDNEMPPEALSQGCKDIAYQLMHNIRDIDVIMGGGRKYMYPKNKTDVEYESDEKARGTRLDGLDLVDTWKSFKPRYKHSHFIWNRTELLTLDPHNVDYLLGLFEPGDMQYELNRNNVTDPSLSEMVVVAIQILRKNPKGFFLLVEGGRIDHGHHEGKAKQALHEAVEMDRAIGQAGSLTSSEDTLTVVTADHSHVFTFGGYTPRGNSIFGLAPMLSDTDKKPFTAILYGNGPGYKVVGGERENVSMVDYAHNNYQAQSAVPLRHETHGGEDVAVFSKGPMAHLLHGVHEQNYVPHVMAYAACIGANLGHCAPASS
# Sequence of native bacterial alkaline phosphatase (BAP) (P00634 22-471): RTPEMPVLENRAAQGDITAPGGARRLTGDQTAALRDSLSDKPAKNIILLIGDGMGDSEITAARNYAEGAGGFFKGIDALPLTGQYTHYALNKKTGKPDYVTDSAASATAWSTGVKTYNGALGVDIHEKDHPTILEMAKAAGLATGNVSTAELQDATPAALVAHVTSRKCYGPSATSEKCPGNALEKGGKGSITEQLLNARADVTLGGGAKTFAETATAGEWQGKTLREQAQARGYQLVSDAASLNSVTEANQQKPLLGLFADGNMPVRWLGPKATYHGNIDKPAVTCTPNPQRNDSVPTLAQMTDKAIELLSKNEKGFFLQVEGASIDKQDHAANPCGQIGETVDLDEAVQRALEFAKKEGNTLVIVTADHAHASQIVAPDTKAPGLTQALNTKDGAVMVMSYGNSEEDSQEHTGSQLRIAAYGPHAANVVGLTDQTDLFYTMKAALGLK
compound,measurement,setting,value
"O=C(O)CN(CCN(CC(=O)O)CC(=O)O)CC(=O)O [EDTA, ethylene diamine tetraacetic acid]",time required for inactivation on exposure to EDTA,[1],3.5 h
same,time until activity is reduced to zero on exposure to EDTA,[2],1.5 h
same,inhibition after incubation with EDTA,[3],50%
